Results from patent publication US8404435B2, “Enigma-Mdm2 interaction and uses thereof” (Korea Research Institute of Bioscience and Biotechnology, priority 2009, dated 2013).
Blank lines part the entries; values can stand above or below the compound they belong to.

Legend:
Mdm2 [1] = target: T1, Mdm2 (Homo sapiens, UniProt Q00987); assay: In vitro binding assay (GST pull-down / IP) of purified proteins; details: proteins purified from E. coli
T1 construct: His; made in house; host or cells: E. coli
T1 sequence (Q00987 whole entry): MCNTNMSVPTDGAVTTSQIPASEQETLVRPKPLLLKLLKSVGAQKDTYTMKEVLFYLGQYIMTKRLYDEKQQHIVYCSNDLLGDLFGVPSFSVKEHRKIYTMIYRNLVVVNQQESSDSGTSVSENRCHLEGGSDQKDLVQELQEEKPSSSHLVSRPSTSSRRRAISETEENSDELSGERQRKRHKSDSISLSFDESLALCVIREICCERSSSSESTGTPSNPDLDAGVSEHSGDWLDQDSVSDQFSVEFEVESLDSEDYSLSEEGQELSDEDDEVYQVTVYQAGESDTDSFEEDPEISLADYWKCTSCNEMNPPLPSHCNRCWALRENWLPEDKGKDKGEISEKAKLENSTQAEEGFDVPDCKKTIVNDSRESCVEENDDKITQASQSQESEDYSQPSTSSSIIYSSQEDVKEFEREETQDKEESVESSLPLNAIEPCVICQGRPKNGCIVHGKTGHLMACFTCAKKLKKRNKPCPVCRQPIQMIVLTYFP
Description: The present inventors, to test interaction between Enigma and Mdm2, generated mutants (F-PDZ, F-PDZ-LIM1, F-LIM) of Enigma in pCMVtaq2B vector by a common PCR cloning method, and produced mutants (GST-1-100, GST-101-491, GST-201-491, GST-301-491) of Mdm2 in pEBG vector by a PCR cloning method. His-Mdm2, Enigma, GST-p53, EniΔLIM3 proteins were respectively separated and purified from E. coli to identify the interaction in vitro.
In vitro binding assay was performed to identify directly in-vitro interaction between respective proteins (1 μg His-Mdm2, 0.5 μg Enigma, 1 μg GST-p53) which are separated and purified from E. coli. Binding between respective proteins were induced after mixing, the bindings between proteins were identified by a GST pull-down and an IP method.
A binding site was determined by using respective mutants produced from Enigma and Mdm2. First, each mutant vector (5 μg) was introduced into a 293 cell line where Hag-Enigma is constitutively expressed, and afterwards binding was identified by GST pull-down and by a Western blotting with a Hag antibody (FIG. 5D). Also, each Enigma mutant (5 μg) and GST-Mdm2 expression vector (5 μg) were introduced into a 293T cell line (ATCC) by a calcium phosphate method. At 24 hours, the cells were collected, and binding was identified by IP with a Flag antibody and by a Western blotting with a GST antibody (FIG. 5E). […]

Mdm2 [2] = target: T1, Mdm2; assay: In vitro ubiquitination assay; format: biochemical
Description: In vitro ubiquitination assay was performed to test self-ubiquitination of Mdm2 by Enigma's binding. After ubiquitin reaction mixture (including E1, E2, His-Ub, ATP) was added and reacted to His-Mdm2 protein (0.5 μg), His-Mdm2 (C464A: 0.5 μg), Enigma protein (0.5, 1 μg), F-EniΔLIM3 (1 μg), a change in self-ubiquitination and binding proteins for Mdm2 were identified by an IP/IB method. As the result, self-ubiquitination of Mdm2 was inhibited by F-Enigma, which binds to Mdm2, and Enigma had no effect on an Mdm2 (C464A) variant where 464-cysteine on the Mdm2 RING finger region was substituted by alanine (FIG. 7C). Also, Enigma stimulated Mdm2-mediated p53 ubiquitination in vitro (FIG. 7D). Thus, Enigma was identified as a determining factor that shifts specificity of Mdm2 E3 ligase from itself toward p53.
PCAF (p300-CBP-associated factor) induces the ubiquitination of Mdm2 (Nat Cell Biol 9, 331-338, 2007). When proteins purified from bacteria and described in FIG. 5-1a were used to perform an in-vitro ubiquitin experiment, Enigma had no effect on Mdm2 ubiquitination by PCAF (FIG. 8A). This event was also tested in an Mdm2^−/−p53^−/− MEF cell line (FIG. 8B).

[3] = test system: MRC5 (human normal fibroblast); assay: Serum response of SRF-Enigma-Mdm2 pathway in MRC5; format: cell-based
Description: (§1) The present inventors identified serum response by using MRC5 (human normal fibroblast), MEF (mouse embryonic fibroblast) to identify presence of SRF-Enigma-Mdm2 pathway in normal cells. In case of MRC5, activity of SRF-Enigma-Mdm2 pathway by serum was inhibited when siSRF (10, 15 μg) is induced or PD98059 is present; in case of MEF, activity of SRF-Enigma-Mdm2 pathway was inhibited by PD98059 (FIGS. 12A and 12C). Thus, an amount of protein by transcriptional activity increased for SRF, Enigma, transcript level for Mdm2 (p1-Mdm2) and p53 was unvaried. However, transcript level for p2-Mdm2 changed dependently on an amount of p53 expression (FIGS. 12B and 12D).

[4] = test system: MEF (mouse embryonic fibroblast); assay: Serum response of SRF-Enigma-Mdm2 pathway in MEF; format: cell-based
Description: as §1

[5] = test system: Mdm2+/+p53-/- MEF cell lines; assay: HGF effect on SRF-Enigma-Mdm2 pathway with or without PD98059; format: cell-based, mouse; details: Ad-p53 or Ad-LacZ induced
Source text: Since an MAP kinase is known to be associated with SRF expression by cell growth factor (J Physiol Pharmacol 53, 147-157, 53, 2002), the present inventors hypothesized that an MAP kinase is associated with regulation of SRF-Enigma-Mdm2 pathway, and tested by using PD98059, MAP kinase-specific inhibitor. The present inventors treated the cells with HGF and with or without PD98059 after inducing Ad-p53 or Ad-LacZ into Mdm2^+/+p53^−/− MEF cell lines. As the result, PD98059 abolished the HGF effect on SRF-Enigma-Mdm2 pathway (FIG. 10E).

Enigma promoter = assay: SRE-Luc / ΔSRE-Luc Enigma promoter reporter assay; format: cell-based; details: HLK3; 20, 40 ng/ml, 6 hours
Description: After Enigma-Luc was induced into an HLK3 cell line (0.5 μg), was cultured in DMEM with 0.1% […] for 24 hours, and was cultured with 5% and 20% FBS added for 6 hours again, luciferase activity of collected cells were measured. As the result, activity of Enigma-Luc increased dependently on the concentration of serum (FIG. 9B).
After SRE-Luc (0.5 μg), ΔSRE-Luc (0.5 μg), which were produced to test SRF dependence of Enigma expression, were induced into an HLK3 cell line, the cells were cultured in DMEM with 0.1% FBS for 24 hours, and were cultured with 5% and 20% FBS, FGF (20, 40 ng/ml), or HGF (20, 40 ng/ml) added for 6 hours again, luciferase activity of collected cells were measured.

HLK3 cell line = assay: HGF effect on SRF-Enigma-Mdm2-p53 pathway, Western blotting; format: cell-based; details: HGF 40, 60 ng/ml, 4 hours before cell collection
Description: The present inventors investigated whether SRF-Enigma-Mdm2 pathway is also regulated by HGF. The present inventors, to show specific relevance of SRF, Enigma, identified changes in each protein by a Western blotting after inducing 10 μg each of siEnigma, siSRF into an HLK3 cell line, culturing them in a condition of removing serum, and processing each with HGF (40, 60 ng/ml) 4 hours before cell collection. […] Furthermore, the present inventors observed a change in Enigma and Mdm2 after directly inducing F-SRF into an HLK3 cell line concentration-wise (5, 10 μg).

mouse liver = assay: SRF-Enigma-Mdm2-p53 pathway in mouse liver, Western blotting; format: in vivo, mice (Balb/c); details: HGF 100 μg/kg into tail vein, livers removed time-wise
Description: The present inventors identified a change in SRF-Enigma-Mdm2-p53 by a Western blotting after injecting each of Ad-p53 or Ad-LacZ virus (5×10^8 pfu) into tail vein of mice (Balb/c, Female, Taconic) and after 24 hours injecting HGF (100 μg/kg) into tail vein of mice again, removing livers time-wise. As the result, HGF induced protein expression by transcriptionally activating SRF, Enigma was induced by SRF at transcription level, and an amount of protein increased.
The present inventors, to observe a change in Mdm2-p53 according to a direct change in an amount of Enigma expression, identified an amount of each protein by a Western blotting after injecting or not injecting Ad-p53 into tail vein of mice (Balb/c, Female, Taconic) and after 24 hours injecting Ad-F-Enigma, Ad-LacZ, PBS into tail vein of mice again, removing livers after 48 hours. Furthermore, after injecting Ad-siEnigma, Ad-siControl and PBS into tail vein and injecting HGF into tail vein 8 hours before liver removal.

binding to Mdm2 in vitro (Mdm2 [1]): bound to Mdm2 directly
Mdm2-mediated p53 ubiquitination in vitro (Mdm2 [2]): stimulated
Mdm2 ubiquitination by PCAF in vitro (Mdm2 [2]): no effect
self-ubiquitination of Mdm2 in vitro (Mdm2 [2]; Enigma protein 0.5, 1 μg, His-Mdm2 0.5 μg): inhibited
Compound: Enigma: Enigma protein separated and purified from E. coli

Compound: COc1cccc(-c2cc(=O)c3ccccc3o2)c1N [PD98059]
activity of SRF-Enigma-Mdm2 pathway by serum [3]: inhibited
activity of SRF-Enigma-Mdm2 pathway [4]: inhibited
HGF effect on SRF-Enigma-Mdm2 pathway [5]: abolished

Compound: HGF: growth factor
reporter activity of SRE-Luc but not ΔSRE-Luc (Enigma promoter): increased dependently on the concentration of growth factor
changes in SRF, Enigma, Mdm2, p53 protein (HLK3 cell line): an increase in SRF-Enigma-Mdm2 and a SRF- or Enigma-dependent decrease in p53
amount of protein of Mdm2 and p53 in liver (mouse liver): the amount of protein in Mdm2 increased and simultaneously that of p53 decreased
